Drawing on US12209092B2, “Inhibitors of GLI1 as therapeutic agents” (NEW YORK UNIVERSITY, priority 2018, dated 2025), this text covers IC50 for 21 compounds.

Molecules are shown by their SMILES. pIC50: −log10 of the molar value. Like-named read-outs stand apart in the source and are kept apart here. Where only a bound is given, the exact number is not on record here.

The test system of the assay is Gli1-mediated transcription. Briefly: Gli1-mediated transcriptional luciferase reporter assay. Format: cell-based. Here is the method: Gli1-mediated transcriptional luciferase reporter assay was performed using Shh-LIGHT2 cells in order to evaluate the effects on activation and inhibition of Gli1-mediated transcription by the compounds of the disclosure. Brief assay procedure is provided below. […] Shh-LIGHT2 cells were harvested from about 80% confluent 10-cm dish using 0.25% Trypsin-EDTA solution. Medium was removed, and cells were washed with 5 mL DPBS and aspirated. Then, 1 mL 0.25% Trypsin-EDTA solution was added to a 10-cm dish. The dish was placed in the incubator for 1-3 minutes, or until cells have detached. 3 mL of cell growth medium (DMEM, 10% FBS, 1% PenStrep, 1% sodium pyruvate, and 1% GlutaMax) was added to the 10-cm dish, and the contents were transferred to a conical tube. […] The cell assay plate was removed from incubator after cells reached confluency. The culture medium was then manually removed from the cell plates, and the plates were centrifuged at 200 rpm for 30 seconds. […] After 30 min incubation of antagonist, cells were stimulated with agonist (purmorphamine, 5 μL, 1.5 μM final), then incubate for 24 h at 37° C./5% CO2. […] Luciferase assay: After incubation, the cell assay plate was allowed to acclimate to room temperature. Then, 20 μL of Duo-Glo® Luciferase Reagent (Promega) was added to each well of cell assay plate. The plate was briefly spun down, mixed, and incubated for 30 minutes at room temperature. The cell plate was read using luminometer for firefly luminescence activity. Then, 20 μL of Duo-Glo® Step&Glo® Reagent (Promega) was added to each well of cell assay plate. The plate was briefly spun down, mixed, and incubated for 30 minutes at room temperature. The cell plate was read using luminometer for Renilla luminescence activity. Ratio of firefly: Renilla luminescence was calculated for each well. The compound well ratio was normalized to the ratio from a control well.

Where [1] appears, read: Shh-LIGHT2 cells, antagonist mode, purmorphamine 1.5 μM stimulation, 24 h, firefly luminescence, read-out: Gli1 IC50 firefly.
Setting [2] is: Shh-LIGHT2 cells, antagonist mode, purmorphamine 1.5 μM stimulation, 24 h, ratio of firefly:Renilla luminescence, read-out: Gli1 IC50 firefly:Renilla ratio.

Turning to `Clc1ccc2c(c1)CC(N1CCc3nc(-c4ccccc4Cl)[nH]c3C1)CC2` (stereo not drawn) [Example 13, 5-(7-chloro-1,2,3,4-tetrahydronaphthalen-2-yl)-2-(2-chlorophenyl)-4,5,6,7-tetrahydro-3H-imidazo[4,5-c]pyridine], the pIC50 was 6.31 to 7.00 under setting [1] and 6.31 to 7.00 under setting [2].

In the case of `COc1cccc2c1CC(N1CCc3nc(-c4ccccc4Cl)n(CCO)c3C1)CC2` (stereo not drawn) [Example 130, 2-(2-(2-chlorophenyl)-5-(8-methoxy-1,2,3,4-tetrahydronaphthalen-2-yl)-4,5,6,7-tetrahydro-3H-imidazo[4,5-c]pyridin-3-yl)ethan-1-ol], the pIC50 is 4.30 to 6.00 under setting [1] and 4.30 to 6.00 under setting [2].

As to `OC1c2c(Cl)cccc2CCC1N1CCc2nc(-c3ccccc3Cl)[nH]c2C1` (stereo not drawn) [Example 14, 8-chloro-2-(2-(2-chlorophenyl)-3,4,6,7-tetrahydro-5H-imidazo[4,5-c]pyridin-5-yl)-1,2,3,4-tetrahydronaphthalen-1-ol], the pIC50 is 4.30 to 6.00 under setting [1] and 4.30 to 6.00 under setting [2].

Consider `Fc1ccccc1-c1nc2c([nH]1)CN(C1CCc3cccc(F)c3C1)CC2` (stereo not drawn) [Example 11, 5-(8-fluoro-1,2,3,4-tetrahydronaphthalen-2-yl)-2-(2-fluorophenyl)-4,5,6,7-tetrahydro-3H-imidazo[4,5-c]pyridine], for which the pIC50 reads like this: under setting [1], 4.30 to 6.00; under setting [2], 4.30 to 6.00.

As for `Fc1cc2c(cc1F)CC(N1CCc3nc(-c4ccccc4F)[nH]c3C1)CC2` (stereo not drawn) [Example 72, 5-(6,7-difluoro-1,2,3,4-tetrahydronaphthalen-2-yl)-2-(2-fluorophenyl)-4,5,6,7-tetrahydro-3H-imidazo[4,5-c]pyridine], the pIC50 under setting [1] is 4.30 to 6.00 and the pIC50 under setting [2] was 4.30 to 6.00.

As to `Clc1ccccc1-c1nc2c([nH]1)CN(C1Cc3ccccc3C1)CC2` [Example 2, 2-(2-chlorophenyl)-5-(2,3-dihydro-1H-inden-2-yl)-4,5,6,7-tetrahydro-3H-imidazo[4,5-c]pyridine], the pIC50 runs as follows: (Shh Light2, 24 h, read-out: Gli1 IC50 firefly) 4.30 to 6.00; (Shh Light2, 24 h, read-out: Gli1 IC50 firefly:Renilla ratio) 4.30 to 6.00.

Turning to `Fc1ccccc1-c1nc2c([nH]1)CN(C1CCc3ccc(Cl)cc3C1)CC2` (stereo not drawn) [Example 6, 5-(7-chloro-1,2,3,4-tetrahydronaphthalen-2-yl)-2-(2-fluorophenyl)-4,5,6,7-tetrahydro-3H-imidazo[4,5-c]pyridine], the pIC50 runs as follows: under setting [1], 4.30 to 6.00; under setting [2], 4.30 to 6.00.

In the case of `COc1cccc(-c2nc3c([nH]2)CN(C2CCc4ccc(OC)cc4C2)CC3)c1` (stereo not drawn) [Example 4, 5-(7-methoxy-1,2,3,4-tetrahydronaphthalen-2-yl)-2-(3-methoxyphenyl)-4,5,6,7-tetrahydro-3H-imidazo [4,5-c]pyridine], the pIC50 runs as follows: under setting [1], 6.00 to 6.30; under setting [2], 4.30 to 6.00.

As for `COc1cccc2c1CCC(N1CCc3nc(-c4ccccc4Cl)[nH]c3C1)C2` (stereo not drawn) [Example 10, 2-(2-chlorophenyl)-5-(5-methoxy-1,2,3,4-tetrahydronaphthalen-2-yl)-4,5,6,7-tetrahydro-3H-imidazo[4,5-c]pyridine], the pIC50 under setting [1] is 6.31 to 7.00 and the pIC50 under setting [2] is 6.31 to 7.00.

As to `O[C@H]1c2cc(Cl)ccc2C[C@@H]1N1CCc2nc(-c3ccccc3Cl)[nH]c2C1` (relative stereo) [Example 99, trans-6-chloro-2-(2-(2-chlorophenyl)-3,4,6,7-tetrahydro-5H-imidazo[4,5-c]pyridin-5-yl)-2,3-dihydro-1H-inden-1-ol], the pIC50 under setting [1] was 4.30 to 6.00 and the pIC50 under setting [2] was 4.30 to 6.00.

On to `Fc1ccc(-c2nc3c([nH]2)CN(C2CCc4ccc(Cl)cc4C2)CC3)c(Cl)c1` (stereo not drawn) [Example 22, 5-(7-chloro-1,2,3,4-tetrahydronaphthalen-2-yl)-2-(2-chloro-4-fluorophenyl)-4,5,6,7-tetrahydro-3H-imidazo[4,5-c]pyridine], for which the pIC50 is 6.00 to 6.30 under setting [1] and 6.31 to 7.00 under setting [2].

Turning to `COc1ccc2c(c1)CCC(N1CCc3nc(-c4ccccc4F)[nH]c3C1)C2` (stereo not drawn) [Example 7, 2-(2-fluorophenyl)-5-(6-methoxy-1,2,3,4-tetrahydronaphthalen-2-yl)-4,5,6,7-tetrahydro-3H-imidazo[4,5-c]pyridine], the pIC50 was 4.30 to 6.00 under setting [1] and 4.30 to 6.00 under setting [2].

With `Cn1c(-c2ccccc2Cl)nc2c1CN(C1CCc3cccc(Cl)c3C1)CC2` (stereo not drawn) [Example 18, 5-(8-chloro-1,2,3,4-tetrahydronaphthalen-2-yl)-2-(2-chlorophenyl)-3-methyl-4,5,6,7-tetrahydro-3H-imidazo[4,5-c]pyridine], the pIC50 under setting [1] was 4.30 to 6.00 and the pIC50 under setting [2] was 4.30 to 6.00.

Regarding `Clc1ccccc1-c1nc2c([nH]1)CN(C1CCc3cc(Br)ccc3C1)CC2` (stereo not drawn) [Example 109, 5-(6-bromo-1,2,3,4-tetrahydronaphthalen-2-yl)-2-(2-chlorophenyl)-4,5,6,7-tetrahydro-3H-imidazo[4,5-c]pyridine], the pIC50 reads like this: under setting [1], 4.30 to 6.00; under setting [2], 4.30 to 6.00.

Consider `Clc1ccc2c(c1)CC(N1CCc3nc(-c4ccccc4Cl)[nH]c3C1)CO2` (stereo not drawn) [Example 3, 5-(6-chlorochroman-3-yl)-2-(2-chlorophenyl)-4,5,6,7-tetrahydro-3H-imidazo[4,5-c]pyridine], for which the pIC50 by setting is: under setting [1], 6.00 to 6.30; under setting [2], 6.00 to 6.30.

Consider `Clc1ccc2c(c1)CC(N1CCc3nc(-c4ccc(Br)cc4Cl)[nH]c3C1)CC2` (stereo not drawn) [Example 29, 2-(4-bromo-2-chlorophenyl)-5-(7-chloro-1,2,3,4-tetrahydronaphthalen-2-yl)-4,5,6,7-tetrahydro-3H-imidazo[4,5-c]pyridine], for which the pIC50 reads like this: under setting [1], 6.00 to 6.30; under setting [2], 6.31 to 7.00.

With `Fc1cccc(-c2nc3c([nH]2)CN(C2CCc4ccc(F)cc4C2)CC3)c1` (stereo not drawn) [Example 51, 5-(7-fluoro-1,2,3,4-tetrahydronaphthalen-2-yl)-2-(3-fluorophenyl)-4,5,6,7-tetrahydro-3H-imidazo[4,5-c]pyridine], the pIC50 is, setting by setting: under setting [1], 4.30 to 6.00; under setting [2], 4.30 to 6.00.

For the compound `Fc1cc(F)c2c(c1)CC(N1CCc3nc(-c4ccccc4F)[nH]c3C1)CC2` (stereo not drawn) [Example 73, 5-(5,7-difluoro-1,2,3,4-tetrahydronaphthalen-2-yl)-2-(2-fluorophenyl)-4,5,6,7-tetrahydro-3H-imidazo[4,5-c]pyridine], the pIC50 is < 4.52 under setting [1] and < 4.52 under setting [2].

`Clc1ccc2c(c1)CC(N1CCc3nc(-c4cc(Br)ccc4Cl)[nH]c3C1)CC2` (stereo not drawn) [Example 30, 2-(5-bromo-2-chlorophenyl)-5-(7-chloro-1,2,3,4-tetrahydronaphthalen-2-yl)-4,5,6,7-tetrahydro-3H-imidazo[4,5-c]pyridine]: the pIC50 is 4.30 to 6.00 under setting [1] and 6.00 to 6.30 under setting [2].

For `COc1ccc(Cl)c(-c2nc3c([nH]2)CN(C2CCc4ccc(Cl)cc4C2)CC3)c1` (stereo not drawn) [Example 24, 5-(7-chloro-1,2,3,4-tetrahydronaphthalen-2-yl)-2-(2-chloro-5-methoxyphenyl)-4,5,6,7-tetrahydro-3H-imidazo[4,5-c]pyridine], the pIC50 under setting [1] was 6.31 to 7.00 and the pIC50 under setting [2] is > 7.00.

In the case of `Fc1ccccc1-c1nc2c([nH]1)CN(C1CCc3cc(Cl)ccc3C1)CC2` (stereo not drawn) [Example 70, 5-(6-chloro-1,2,3,4-tetrahydronaphthalen-2-yl)-2-(2-fluorophenyl)-4,5,6,7-tetrahydro-3H-imidazo[4,5-c]pyridine], the pIC50 runs as follows: under setting [1], 4.30 to 6.00; under setting [2], 4.30 to 6.00.
